Results filed as inconclusive are left out. Calls of active or inactive are those of the source. How the calls were made is not given here.

The test system of the series is S. typhimurium/E. coli reverse mutation, colony counts. Put plainly: Bacterial reverse mutation test (aka Ames test) summary data. Summed up:
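S. typhimurium his⁻ strains (TA97–TA1538) and E. coli WP2 uvrA pKM101 trp⁻, dosed over a range with or without rat, hamster or mouse liver S9. Preincubated 20 min at 37° C (or plate incorporation), plated in agar, incubated usually two days. Revertant colonies counted against negative controls.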
In general terms: The Ames test detects mutagens through reverse mutation in bacteria.
Take `Cc1ccc2nc(-c3ccc(N)cc3)sc2c1`: the outcome was “active; positive”.

Regarding `CC(C)Nc1ccc(Nc2ccccc2)cc1`, the outcome was “inactive; negative”.

For the compound `N#[N+]c1ccc2c(S(=O)(=O)[O-])cccc2c1O`, the outcome is “active; positive”.

As to `O=C1c2c(Br)c(Br)c(Br)c(Br)c2C(=O)N1CCN1C(=O)c2c(Br)c(Br)c(Br)c(Br)c2C1=O`, the outcome is “inactive; negative”.

In the case of `C=CCSSCCC`, the outcome was “inactive; negative”.

Consider `Cc1ccc([N+](=O)[O-])cc1C`, for which the outcome is “active; positive”.

As for `Cc1cc(C)c(N=Nc2c(O)c(S(=O)(=O)O)cc3cc(S(=O)(=O)O)ccc23)cc1C`, the outcome was “inactive; negative”.

Turning to `CCC=O`, the outcome was “inactive; negative”.

Take `C=CCOC(C)=O`: the outcome is “active; positive”.

On to `CCCCCCCCOC(=O)c1ccccc1C(=O)OCCCCCCCC`, for which the outcome was “inactive; negative”.

On to `Nc1ccc(O)c(N)c1`, for which the outcome was “active; positive”.

On to `Oc1c(Br)cc(Br)cc1Br`, for which the outcome was “inactive; negative”.

With `COP(=O)(O)OC`, the outcome was “inactive; negative”.

As to `O=C(O)C(F)(F)C(F)(F)C(F)(F)C(F)(F)C(F)(F)C(F)(F)C(F)(F)C(F)(F)C(F)(F)F`, the outcome is “inactive; negative”.

Take `c1ccc(COCc2ccccc2)cc1`: the outcome is “inactive; negative”.

With `NCCCN`, the outcome was “inactive; negative”.

In the case of `O=C(O)C1=NN(c2ccc(S(=O)(=O)O)cc2)C(=O)C1N=Nc1ccc(S(=O)(=O)[O-])cc1.O=C(O)C1=NN(c2ccc(S(=O)(=O)O)cc2)C(=O)C1N=Nc1ccc(S(=O)(=O)[O-])cc1.O=C(O)C1=NN(c2ccc(S(=O)(=O)O)cc2)C(=O)C1N=Nc1ccc(S(=O)(=O)[O-])cc1.[Al+3]` (stereo unspecified), the outcome was “inactive; negative”.

Consider `COP(=O)(O)O`, for which the outcome was “inactive; negative”.

Regarding `CCCCCN`, the outcome is “inactive; negative”.

In the case of `O=[N+]([O-])c1ccccc1CCl`, the outcome was “active; positive”.

With `ON=C1CCCCC1`, the outcome is “active; positive”.

`ClCC(Cl)CCl`: the outcome is “active; positive”.

For `O=C(O)c1ccccc1[N+](=O)[O-]`, the outcome is “active; positive”.

`O=C1OC2(c3cc(Br)c(O)c(Br)c3Oc3c2cc(Br)c(O)c3Br)c2c(Cl)c(Cl)c(Cl)c(Cl)c21`: the outcome is “active; positive”.

Regarding `CCCCC(CC)CN` (stereo unspecified), the outcome is “inactive; negative”.

On to `O=[N+]([O-])c1cc([N+](=O)[O-])c2ccccc2c1`, for which the outcome is “active; positive”.

With `ClCCOCOCCCl`, the outcome was “active; positive”.

In the case of `CC(C)[N+](C)(CCOC(=O)C1c2ccccc2Oc2ccccc21)C(C)C`, the outcome was “inactive; negative”.

With `Cc1cccc([N+](=O)[O-])c1C`, the outcome is “active; positive”.

For the compound `O=[N+]([O-])c1cc(Cl)c(Cl)cc1Cl`, the outcome is “active; positive”.

In the case of `CC(CCN(C)C)N(C)C` (stereo unspecified), the outcome was “inactive; negative”.

Turning to `CC(=O)OC1CC(C)OC(C)O1` (stereo unspecified), the outcome is “active; positive”.

`CCC(Br)(CC)C(=O)NC(N)=O`: the outcome is “inactive; negative”.

Turning to `O=C(O)C(F)(F)C(F)(F)C(F)(F)C(F)(F)C(F)(F)C(F)(F)C(F)(F)C(F)(F)F`, the outcome is “inactive; negative”.

Consider `Nc1cc(S(=O)(=O)O)ccc1O`, for which the outcome was “inactive; negative”.

As to `CCCCOC(C)=O`, the outcome is “inactive; negative”.

As for `CCCCC(CC)CNCC(CC)CCCC` (stereo unspecified), the outcome was “inactive; negative”.

With `CC(CCl)OC(C)CCl` (stereo unspecified), the outcome is “active; positive”.

As to `C=Cc1ccccc1`, the outcome was “inactive; negative”.

Consider `[Cl-].[Cl-].[Sn+2]`, for which the outcome was “inactive; negative”.

In the case of `CN(C)c1ccc(N=O)cc1`, the outcome is “active; positive”.

For the compound `CC(=O)c1ccc(Cl)c(Cl)c1Cl`, the outcome was “active; positive”.

`CN(C)CCN(Cc1ccccc1)c1ccccc1`: the outcome is “inactive; negative”.

Take `Oc1ccc(Cl)cc1`: the outcome was “inactive; negative”.

Consider `CCCCC(CC)COS(=O)(=O)O` (stereo unspecified), for which the outcome was “inactive; negative”.

Regarding `CCCCCCCCCCCC(=O)[O][Sn]([CH2]CCC)([CH2]CCC)[O]C(=O)CCCCCCCCCCC`, the outcome is “inactive; negative”.

For `OCc1ccco1`, the outcome is “inactive; negative”.

For `NC1NC=CS1` (stereo unspecified), the outcome is “active; positive”.

Regarding `CN(C)c1ccc(C(=O)c2ccc(N(C)C)cc2)cc1`, the outcome was “active; positive”.

For `CCCCNC(=O)NS(=O)(=O)c1ccc(C)cc1`, the outcome is “inactive; negative”.

Regarding `CCc1ccccc1`, the outcome is “inactive; negative”.

Turning to `O=C(O)C(Cl)(Cl)Br`, the outcome is “active; positive”.

As to `Cc1ccc(S(N)(=O)=O)cc1`, the outcome is “inactive; negative”.

Consider `CCC[CH2][Sn]([Cl])([Cl])[Cl]`, for which the outcome is “inactive; negative”.

In the case of `NCC(=O)O`, the outcome is “inactive; negative”.

Turning to `C[n+]1cccc(C(=O)[O-])c1`, the outcome is “inactive; negative”.

For `O=C(Cl)c1ccccc1[N+](=O)[O-]`, the outcome was “active; positive”.

On to `Nc1ccc([N+](=O)[O-])cc1[N+](=O)[O-]`, for which the outcome was “active; positive”.

`COc1ccc(C(=O)Nc2ccccc2)cc1[N+](=O)[O-]`: the outcome is “active; positive”.

Regarding `CC(C)S`, the outcome is “inactive; negative”.

Turning to `CC1CO1` (stereo unspecified), the outcome was “active; positive”.

Consider `CC(=O)OC/C=C(\C)CCC=C(C)C`, for which the outcome is “inactive; negative”.

`O=S1(=O)CC=CC1`: the outcome was “inactive; negative”.

For the compound `COC(=O)[C@H]1[C@H]2C[C@@H]3c4[nH]c5cc(OC)ccc5c4CCN3C[C@H]2C[C@@H](OC(=O)c2cc(OC)c(OC)c(OC)c2)[C@@H]1OC`, the outcome is “inactive; negative”.

On to `Nc1c(Br)cc([N+](=O)[O-])cc1[N+](=O)[O-]`, for which the outcome is “active; positive”.

For `CC(=O)c1c(=O)cc(C)oc1=O`, the outcome was “inactive; negative”.

`COc1cc(OC)c(OC)cc1C=O`: the outcome is “inactive; negative”.

Take `O=C1c2ccccc2-c2ccc3c4ccc5c6c(ccc(c7ccc1c2c73)c64)C(=O)c1ccccc1-5`: the outcome was “active; weakly positive”.

With `O=[N+]([O-])c1ccc(Cl)c(Cl)c1`, the outcome is “active; positive”.

With `Cn1cnc([N+](=O)[O-])c1Sc1ncnc2nc[nH]c12`, the outcome is “active; positive”.

For `COC(=O)NC(=S)Nc1ccccc1NC(=S)NC(=O)OC`, the outcome was “active; positive”.

Take `CCCCOC(=O)c1ccccc1C(=O)OCc1ccccc1`: the outcome was “inactive; negative”.

For `O=C(O)C(Cl)Cl`, the outcome is “active; positive”.

As for `CC(=O)C=Cc1ccco1`, the outcome is “inactive; negative”.

As for `CCCCC(CC)COP(=O)(OCC(CC)CCCC)OCC(CC)CCCC` (stereo unspecified), the outcome was “inactive; negative”.

With `CC(=O)c1ccccn1`, the outcome is “inactive; negative”.

As for `CC(=O)/C=C/c1ccccc1`, the outcome is “active; positive”.

In the case of `[K+]`, the outcome was “inactive; negative”.

Take `CCNC(=S)NCC`: the outcome is “inactive; negative”.

In the case of `CN1CSC(=S)N(C)C1`, the outcome is “active; weakly positive”.

For the compound `C=CCBr`, the outcome is “active; positive”.

For `O=C(O)CC(=O)O`, the outcome is “inactive; negative”.

Take `c1ccc(-c2ccccc2)cc1`: the outcome was “inactive; negative”.

`CCC(C)(C)OC`: the outcome was “inactive; negative”.

On to `ClC1=C(Cl)C2(Cl)C3C(Cl)C(Cl)CC3C1(Cl)C2(Cl)Cl` (stereo unspecified), for which the outcome was “inactive; negative”.

As for `CC(C)(OOC(C)(C)c1ccccc1)c1ccccc1`, the outcome was “inactive; negative”.

For the compound `Cc1cccc(OP(=O)(Oc2cccc(C)c2)Oc2cccc(C)c2)c1`, the outcome was “inactive; negative”.

In the case of `NC(=S)Nc1ccccc1`, the outcome was “inactive; negative”.

On to `CCCBr`, for which the outcome is “inactive; negative”.

Turning to `Cc1ccccc1N`, the outcome was “active; positive”.

Take `CC(CC(=O)O)C(=O)O` (stereo unspecified): the outcome was “inactive; negative”.

Turning to `CC(C)NCC(O)c1ccc(O)c(O)c1` (stereo unspecified), the outcome is “active; weakly positive”.

With `O=Cc1c(Cl)cccc1Cl`, the outcome was “inactive; negative”.

Take `OCC#CCO`: the outcome was “inactive; negative”.

Turning to `O=C(O)c1ccc(S(=O)(=O)N(Cl)Cl)cc1`, the outcome was “active; positive”.

In the case of `CC(C)CNCC(C)C`, the outcome was “inactive; negative”.

For the compound `NC(=S)NNC(N)=S`, the outcome is “inactive; negative”.

In the case of `C=CCOC(=O)CC(C)C`, the outcome was “inactive; negative”.

Consider `CN(C)C(=O)Cl`, for which the outcome is “active; positive”.

Consider `CCCCCC`, for which the outcome is “inactive; negative”.

Turning to `CCC(C)=O`, the outcome was “inactive; negative”.

As for `CCOCCOC(C)=O`, the outcome is “active; positive”.

On to `CC(=O)NNC(=O)c1ccccn1`, for which the outcome was “inactive; negative”.

With `CC(C)CO`, the outcome was “inactive; negative”.

For `CCOc1cccc(N)c1`, the outcome is “active; weakly positive”.

As to `O=P1(N(CCCl)CCCl)NCCCO1` (stereo unspecified), the outcome was “active; positive”.

For `C1CCCNCC1`, the outcome was “inactive; negative”.

`CCNc1nc(Cl)nc(NC(C)C)n1`: the outcome was “inactive; negative”.

As for `O=C(O)CO`, the outcome was “inactive; negative”.

As to `[O]=[Cr](=[O])([OH])[O][Cr](=[O])(=[O])[OH]`, the outcome is “active; positive”.

Regarding `N#CCCCCC#N`, the outcome is “inactive; negative”.

The values are drawn from PubChem BioAssay AID2202554 (NIEHS Division of Translational Toxicology (DTT)).
